Converted amounts (≈) assume the structure as drawn.
Experiments:
[1] = test system: Klebsiella pneumoniae CRKP 5452; assay: microbe, parasite or virus in culture; assay type: cell-based; conditions: Figure S127a, wild type
Procedure, shortened: (§1)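 MIC = lowest peptide concentration with no visible growth; LB broth microdilution, n = 2. Inoculum: overnight culture diluted 5000× (S. aureus 10000×). Peptides serially diluted 2-fold, 64–0.125 µg mL^−1 in the broth added to cells.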

[2] = test system: Klebsiella pneumoniae CRKP HS11286; assay: microbe, parasite or virus in culture; assay type: cell-based; conditions: Figure S127a
Procedure, shortened: as §1

[3] = test system: Klebsiella pneumoniae NCTC 5056; assay: microbe, parasite or virus in culture; assay type: cell-based; conditions: Figure S127a, colistin-resistant strain
Procedure, shortened: as §1

[4] = test system: K. pneumoniae CRKP 5452 PhoQL348Q; assay: MIC against colistin-resistant mutant; assay type: cell-based; conditions: Figure S127a, colistin-resistant mutant from serial passaging
Method: (§2) All MIC assays were performed two independent times (n = 2) in 96‐well plates using a broth micro‐dilution method. The lowest concentration of that inhibited visible microbial growth was recorded as the MIC value.
(§3) For most of bacterial strains, overnight cultures were diluted 5000‐fold in LB broth. For E. faecium and S. aureus, overnight cultures were diluted 1000‐ and 10000‐fold in LB broth, respectively. 100 µL of diluted cells was mixed with 100 µL of LB broth containing each peptide ranging from 64 to 0.125 µg mL^−1 at 2‐fold serial dilutions.
(§4) Overnight cultures S. aureus USA300 were diluted 10000‐fold in LB broth, and 100 µL of dilute cell suspension was added to 96‐well plates containing 100 µL serially diluted aquicidine C4, telomycin, and daptomycin (with 15 mM CaCl2). Overnight cultures K. pneumoniae CRKP5452 were diluted 5000‐fold in LB broth, and 100 µL of dilute cell suspension was added to 96‐well plates containing 100 µL serially diluted aquicidine L and colistin. After an incubation of 24 h at 37 °C, the MIC value was determined. […] The MIC value was recorded as described above, and the process was repeated daily for 21 days. Experiments were performed two independent times (n = 2).
Single‐nucleotide polymorphisms (SNPs) for telomycin‐, daptomycin‐ or colistin‐resistant mutants were identified using SNIPPY by mapping DNBSEQ‐seq reads to the reference genome of S. aureus USA300 or K. pneumoniae CRKP5452.

[5] = test system: K. pneumoniae 15580; assay: MIC against colistin-resistant strain; assay type: cell-based; conditions: Figure S127a
Method: as §2, §3

[6] = test system: K. pneumoniae CRKP5452; assay: Resistance acquisition by serial passaging; assay type: cell-based; conditions: K. pneumoniae CRKP5452, sub-MIC levels, daily passage for 21 days, n = 2
Method: as §4

[7] = test system: Enterococcus faecalis 26; assay: microbe, parasite or virus in culture; assay type: cell-based; conditions: Enterococcus faecalis, 26, 16 h, read-out: MIC Enterococcus faecalis 26
Procedure, shortened: as §1

[8] = test system: Enterococcus faecalis 28; assay: microbe, parasite or virus in culture; assay type: cell-based; conditions: Enterococcus faecalis, 28, 16 h, read-out: MIC Enterococcus faecalis 28
Procedure, shortened: as §1

[9] = test system: Enterococcus faecalis ATCC 29212; assay: microbe, parasite or virus in culture; assay type: cell-based; conditions: Enterococcus faecalis, ATCC29212, 16 h, read-out: MIC Enterococcus faecalis ATCC 29212
Procedure, shortened: as §1

[10] = test system: Enterococcus faecium 35682; assay: microbe, parasite or virus in culture; assay type: cell-based; conditions: Enterococcus faecium, 35682, 16 h, read-out: MIC Enterococcus faecium 35682
Procedure, shortened: as §1

[11] = test system: Staphylococcus aureus ATCC 25923; assay: microbe, parasite or virus in culture; assay type: cell-based; conditions: Staphylococcus aureus, ATCC25923, 16 h, read-out: MIC Staphylococcus aureus ATCC 25923
Procedure, shortened: as §1

[12] = test system: Staphylococcus aureus ATCC 6538; assay: microbe, parasite or virus in culture; assay type: cell-based; conditions: Staphylococcus aureus, ATCC6538, 16 h, read-out: MIC Staphylococcus aureus ATCC 6538
Procedure, shortened: as §1

[13] = test system: Staphylococcus aureus Newman; assay: microbe, parasite or virus in culture; assay type: cell-based; conditions: Staphylococcus aureus, NEWMAN, 16 h, read-out: MIC Staphylococcus aureus Newman
Procedure, shortened: as §1

[14] = test system: Staphylococcus aureus USA300; assay: microbe, parasite or virus in culture; assay type: cell-based; conditions: Staphylococcus aureus, USA300, 16 h, read-out: MIC Staphylococcus aureus USA300
Procedure, shortened: as §1

[15] = test system: Streptococcus mutans ATCC 25175; assay: microbe, parasite or virus in culture; assay type: cell-based; conditions: Streptococcus mutans, ATCC25175, 16 h, read-out: MIC Streptococcus mutans ATCC 25175
Procedure, shortened: as §1

[16] = test system: Streptococcus pyogenes ATCC 19615; assay: microbe, parasite or virus in culture; assay type: cell-based; conditions: Streptococcus pyogenes, ATCC19615, 16 h, read-out: MIC Streptococcus pyogenes ATCC 19615
Procedure, shortened: as §1

[17] = test system: Mycobacterium smegmatis mc2155; assay: microbe, parasite or virus in culture; conditions: Mycolicibacterium smegmatis, MC2155, read-out: MIC Mycobacterium smegmatis mc2155
[18] = test system: fungi; conditions: Figure S20, known peptide; cited from earlier work

## Colistin [reference compound]
[1]
  antibacterial activity (MIC) K. pneumoniae CRKP 5452: 0.125 µg/mL
[2]
  antibacterial activity (MIC) K. pneumoniae CRKP HS11286: 0.125 µg/mL
[3]
  antibacterial activity (MIC) K. pneumoniae NCTC 5056: 32 µg/mL
[4]
  antibacterial activity (MIC) K. pneumoniae CRKP 5452 PhoQL348Q: 4 µg/mL
[5]
  antibacterial activity (MIC) K. pneumoniae 15580: > 64 µg/mL
[6]
  increase of MIC during serial passaging: 13.3 fold

## CN[C@H](CC(C)C)C(=O)N[C@H]1C(=O)N[C@@H](CC(N)=O)C(=O)N[C@H]2C(=O)N[C@H]3C(=O)N[C@H](C(=O)N[C@H](C(=O)O)c4cc(O)cc(O)c4-c4cc3ccc4O)[C@H](O)c3ccc(c(Cl)c3)Oc3cc2cc(c3O[C@@H]2O[C@H](CO)[C@@H](O)[C@H](O)[C@H]2O[C@H]2C[C@](C)(N)[C@H](O)[C@H](C)O2)Oc2ccc(cc2Cl)[C@H]1O [Vancomycin, reference compound]
[7]
  MIC: 1 µg/mL (≈ 0.69 µM)
[8]
  MIC: > 64 µg/mL
[9]
  MIC: 2 µg/mL (≈ 1.38 µM)
[10]
  MIC: > 64 µg/mL
[11]
  MIC: 1 µg/mL (≈ 0.69 µM)
[12]
  MIC: 1 µg/mL (≈ 0.69 µM)
[13]
  MIC: 0.5 µg/mL (≈ 0.345 µM)
[14]
  MIC: 1 µg/mL (≈ 0.69 µM)
[15]
  MIC: 2 µg/mL (≈ 1.38 µM)
[16]
  MIC: 0.5 µg/mL (≈ 0.345 µM)
[17]
  MIC: > 64 µg/mL

## Keanumycin A
[18]
  anti-fungal activity: Pot ent anti-fungal activity

Reference: publication PMC12677607, “Identification of a Pair of Linear or Cyclic Naturally Inspired Bifunctional Lipopeptide Antibiotics That Overcome Antimicrobial Resistance” (Advanced Science, 2025)
